Measurements as given in US11566007B2, “Ras inhibitors” (Revolution Medicines, Inc., priority 2019, dated 2023).
pIC50: −log10 of the molar value.

Assays:
KRAS G12S = KRAS G12S (Homo sapiens (Human), UniProt P01116+P62937, G12S); experiment: Ras-Raf (BRAF RBD) disruption / FRET / MOA assay, KRAS G12S; type: biochemical; details: Ras-Raf disruption/FRET/MOA assay; class symbols; read-out: KRAS G12S FRET data IC50
Method: (§1) The purpose of this biochemical assay is to measure the ability of test compounds to facilitate ternary complex formation between a nucleotide-loaded Ras isoform and cyclophilin A; the resulting ternary complex disrupts binding to a BRAF^RBD construct, inhibiting Ras signaling through a RAF effector.
(§2) Compound is present in plate wells as a 10-point 3-fold dilution series starting at a final concentration of 30 μM. After incubation at 25° C. for 3 hours, a mixture of Anti-His Eu-W1024 and anti-GST allophycocyanin is then added to assay sample wells at final concentrations of 10 nM and 50 nM, respectively, and the reaction incubated for an additional 1.5 hours. […] Compounds that facilitate disruption of a Ras:RAF complex are identified as those eliciting a decrease in the TR-FRET ratio relative to DMSO control wells.
(§3) This protocol may also be executed substituting other Ras proteins or nucleotides.
(§4) The purpose of this biochemical assay was to measure the ability of test compounds to facilitate ternary complex formation between a nucleotide-loaded K-Ras isoform and Cyclophilin A; the resulting ternary complex disrupts binding to a BRAF^RBD construct, inhibiting K-Ras signaling through a RAF effector. Data is reported as IC50 values.
as §2, with “Compound was” for “Compound is”, “allophycocyanin was” for “allophycocyanin is”, “a K-Ras:RAF” for “a Ras:RAF”, “complex were” for “complex are”

KRAS G12D = KRAS G12D (Homo sapiens (Human), UniProt P01116+P62937, G12D); experiment: Ras-Raf (BRAF RBD) disruption / FRET / MOA assay, KRAS G12D; type: biochemical; details: Ras-Raf disruption/FRET/MOA assay; class symbols; read-out: KRAS G12D FRET data IC50
Method: as §1, §2, §3, §4
as §2, with “Compound was” for “Compound is”, “allophycocyanin was” for “allophycocyanin is”, “a K-Ras:RAF” for “a Ras:RAF”, “complex were” for “complex are”

Chain of KRAS G12D (P01116-2 other isoform, or with tags, fused parts or gaps G12D): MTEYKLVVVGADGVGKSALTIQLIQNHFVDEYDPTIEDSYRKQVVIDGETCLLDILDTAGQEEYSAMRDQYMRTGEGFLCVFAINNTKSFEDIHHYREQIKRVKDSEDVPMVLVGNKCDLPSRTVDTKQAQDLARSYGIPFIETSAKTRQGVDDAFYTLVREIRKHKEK
Chain of KRAS G12D (P62937 whole entry): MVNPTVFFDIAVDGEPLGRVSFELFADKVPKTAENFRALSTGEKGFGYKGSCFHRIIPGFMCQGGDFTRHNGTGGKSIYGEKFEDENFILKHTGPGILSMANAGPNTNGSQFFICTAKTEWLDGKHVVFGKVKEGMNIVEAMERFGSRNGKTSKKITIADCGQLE
Chain of KRAS G12S (P01116-2 other isoform, or with tags, fused parts or gaps G12S): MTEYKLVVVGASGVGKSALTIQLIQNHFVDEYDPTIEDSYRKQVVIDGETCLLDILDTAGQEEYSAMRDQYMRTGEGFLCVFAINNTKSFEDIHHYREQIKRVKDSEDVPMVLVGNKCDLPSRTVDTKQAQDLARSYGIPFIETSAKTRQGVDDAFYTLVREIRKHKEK
Chain of KRAS G12S (P62937 whole entry, canonical isoform): as the sequence (P62937 whole entry) above

| SMILES | pIC50 (KRAS G12S) | pIC50 (KRAS G12D) |
| --- | --- | --- |
| C=CC(=O)N1CC(C(=O)N(C)[C@H](C(=O)N[C@H]2Cc3cc(O)cc(c3)-c3ccc4c(c3)c(c(-c3cccnc3COC)n4CC)CC(C)(C)COC(=O)[C@@H]3CCCN(N3)C2=O)C(C)C)C1 (single isomer, unassigned) [Example A070] | 6.00 to 7.00 | 5.00 to 6.00 |
| C=CC(=O)N1CC[C@H](C(=O)N(C)[C@H](C(=O)N[C@H]2Cc3cc(O)cc(c3)-c3ccc4c(c3)c(c(-c3ccccc3CCOC)n4CC)CC(C)(C)COC(=O)[C@@H]3CCCN(N3)C2=O)C2CCOCC2)C1 [Example A006] | 5.00 to 6.00 | < 5.00 |
| C=CC(=O)N1CC[C@H](C(=O)N(C)[C@H](C(=O)N[C@H]2Cc3cc(OC(=O)CN)cc(c3)-c3ccc4c(c3)c(c(-c3ccccc3CCOC)n4CC)CC(C)(C)COC(=O)[C@@H]3CCCN(N3)C2=O)C(C)C)C1 [Example A008] | 5.00 to 6.00 | < 5.00 |
| C=CC(=O)N1CC[C@H](C(=O)N(C)[C@H](C(=O)N[C@H]2Cc3cc(cc(O)c3F)-c3ccc4c(c3)c(c(-c3ccccc3CCOC)n4CC)CC(C)(C)COC(=O)[C@@H]3CCCN(N3)C2=O)C(C)C)C1 [Example A009] | < 5.00 | < 5.00 |
| C=CC(=O)N1CC[C@H](C(=O)N(C)[C@H](C(=O)N[C@H]2Cc3cc(O)cc(c3)-c3ccc4c(c3)c(c(-c3ccc(CN5CCCC5)cc3)n4CC)CC(C)(C)COC(=O)[C@@H]3CCCN(N3)C2=O)C(C)C)C1 [Example A010] | 5.00 to 6.00 | < 5.00 |
| C=CC(=O)N1CCCN(C(=O)N(C)[C@H](C(=O)N[C@H]2Cc3cc(O)cc(c3)-c3ccc4c(c3)c(c(-c3ccccc3CCOC)n4CC)CC(C)(C)COC(=O)[C@@H]3CCCN(N3)C2=O)C(C)C)CC1 [Example A013] | 5.00 to 6.00 | < 5.00 |
| C=CC(=O)N1CC[C@H](C(=O)N(C)[C@H](C(=O)N[C@H]2Cc3cc(O)cc(c3)-c3ccc4c(c3)c(c(-c3ccccc3OC)n4CC)CC(C)(C)COC(=O)[C@@H]3CCCN(N3)C2=O)C(C)C)C1 [Example A017] | 5.00 to 6.00 | < 5.00 |
| C=CC(=O)N1CCN(C(=O)N(C)[C@H](C(=O)N[C@H]2Cc3cc(O)cc(c3)-c3ccc4c(c3)c(c(-c3ccccc3CCOC)n4CC)CC(C)(C)COC(=O)[C@@H]3CCCN(N3)C2=O)C(C)C)CC1 [Example A018] | 5.00 to 6.00 | < 5.00 |
| C=CC(=O)N1CCC(F)(C(=O)N(C)[C@H](C(=O)N[C@H]2Cc3cc(O)cc(c3)-c3ccc4c(c3)c(c(-c3ccccc3CN(C)C)n4CC)CC(C)(C)COC(=O)[C@@H]3CCCN(N3)C2=O)C(C)C)CC1 [Example A020] | 5.00 to 6.00 | < 5.00 |
| C=CC(=O)N1CC[C@H](C(=O)N(C)[C@H](C(=O)N[C@H]2Cc3cc(O)cc(c3)-c3ccc4c(c3)c(c(-c3ccc(CC(=O)O)cc3)n4CC)CC(C)(C)COC(=O)[C@@H]3CCCN(N3)C2=O)C(C)C)C1 [Example A021] | < 5.00 | < 5.00 |
| C=CC(=O)N1CC[C@H](C(=O)N(C)[C@H](C(=O)N[C@H]2Cc3cccc(c3)-c3ccc4c(c3)c(c(-c3ccccc3CCOC)n4CC)CC(C)(C)COC(=O)[C@@H]3CCCN(N3)C2=O)C(C)C)C1 [Example A024] | < 5.00 | < 5.00 |
| C=CC(=O)N1CC[C@H](C(=O)N(C)[C@H](C(=O)N[C@H]2Cc3cc(O)cc(c3)-c3ccc4c(c3)c(c(-c3ccccc3COC)n4CC)CC(C)(C)COC(=O)[C@@H]3CCCN(N3)C2=O)C2CCCC2)C1 [Example A027] | 6.00 to 7.00 | < 5.00 |
| C=CC(=O)N1CC2(CCN([C@H](C(=O)N[C@H]3Cc4cc(O)cc(c4)-c4ccc5c(c4)c(c(-c4ccccc4CCOC)n5CC)CC(C)(C)COC(=O)[C@@H]4CCCN(N4)C3=O)C(C)C)C2=O)C1 [Example A031] | 5.00 to 6.00 | < 5.00 |
| C=CC(=O)N1CC[C@H](C(=O)N(C)[C@H](C(=O)N[C@H]2Cc3cc(OC(=O)CCC(=O)O)cc(c3)-c3ccc4c(c3)c(c(-c3ccccc3CCOC)n4CC)CC(C)(C)COC(=O)[C@@H]3CCCN(N3)C2=O)C(C)C)C1 [Example A032] | – | < 5.00 |
| C=CC(=O)N1CC[C@H](C(=O)N(C)[C@H](C(=O)N[C@H]2Cc3cc(O)cc(c3)-c3ccc4c(c3)c(c(-c3cncc(C#N)c3)n4CC)CC(C)(C)COC(=O)[C@@H]3CCCN(N3)C2=O)C(C)C)C1 [Example A062] | – | < 5.00 |
| C=CC(=O)N1CC[C@H](C(=O)N(C)[C@H](C(=O)N[C@H]2Cc3cc(O)cc(c3)-c3ccc4c(c3)c(c(-c3cnccc3[C@H](C)OC)n4CC)CC(C)(C)COC(=O)[C@@H]3CCCN(N3)C2=O)C(C)C)C1 [Example A076] | – | 6.00 to 7.00 |
| C=CC(=O)N1CC[C@H](C(=O)N(C)[C@H](C(=O)N[C@H]2Cc3cc(O)cc(c3)-c3ccc4c(c3)c(c(-c3cnccc3COC)n4CC)CC(C)(C)COC(=O)[C@@H]3CCCN(N3)C2=O)C(C)C)C1 [Example A091] | – | 5.00 to 6.00 |
| CCn1c(-c2cccnc2COC)c2c3cc(ccc31)-c1cc(O)cc(c1)C[C@H](NC(=O)[C@H](C(C)C)N(C)C(=O)[C@H]1CCN(C(=O)C#CCN(C)C)C1)C(=O)N1CCC[C@H](N1)C(=O)OCC(C)(C)C2 [Example A096] | – | 5.00 to 6.00 |

The remaining lines, values ahead:

| pIC50 (KRAS G12S) | pIC50 (KRAS G12D) | SMILES |
| --- | --- | --- |
| 6.00 to 7.00 | 5.00 to 6.00 | C=CC(=O)N1CC[C@H](C(=O)N(C)[C@H](C(=O)N[C@H]2Cc3cc(O)cc(c3)-c3ccc4c(c3)c(c(-c3ccccc3CN(C)C)n4CC)CC(C)(C)COC(=O)[C@@H]3CCCN(N3)C2=O)C(C)C)C1 [Example A005] |
| 5.00 to 6.00 | < 5.00 | C=CC(=O)N1CCC(C(=O)N(C)[C@H](C(=O)N[C@H]2Cc3cc(O)cc(c3)-c3ccc4c(c3)c(c(-c3ccccc3CCOC)n4CC)CC(C)(C)COC(=O)[C@@H]3CCCN(N3)C2=O)C(C)C)CC1 [Example A014] |
| 6.00 to 7.00 | 5.00 to 6.00 | C=CC(=O)N1CC[C@H](C(=O)N(C)[C@H](C(=O)N[C@H]2Cc3cc(O)cc(c3)-c3ccc4c(c3)c(c(-c3ccccc3[C@H](C)OC)n4CC)CC(C)(C)COC(=O)[C@@H]3CCCN(N3)C2=O)C(C)C)C1 [Example A022] |
| 6.00 to 7.00 | 5.00 to 6.00 | C=CC(=O)N1CC[C@H](C(=O)N(C)[C@H](C(=O)N[C@H]2Cc3cc(O)cc(c3)-c3ccc4c(c3)c(c(-c3ccccc3[C@@H](C)OC)n4CC)CC(C)(C)COC(=O)[C@@H]3CCCN(N3)C2=O)C(C)C)C1 [Example A029] |
| 5.00 to 6.00 | < 5.00 | C=CC(=O)N1CC[C@H](C(=O)N(C)[C@H](C(=O)N[C@H]2Cc3cc(O)cc(c3)-c3ccc4c(c3)c(c(-c3cccc(CN(C)C)c3)n4CC)CC(C)(C)COC(=O)[C@@H]3CCCN(N3)C2=O)C(C)C)C1 [Example A030] |
| – | 5.00 to 6.00 | C=CC(=O)N1CC[C@H](C(=O)N(C)[C@H](C(=O)N[C@H]2Cc3cc(O)cc(c3)-c3ccc4c(c3)c(c(-c3ccccc3CCOC)n4C(C)(C)C#N)CC(C)(C)COC(=O)[C@@H]3CCCN(N3)C2=O)C(C)C)C1 [Example A034] |
| – | 5.00 to 6.00 | C=CC(=O)N1CC[C@H](C(=O)N(C)[C@H](C(=O)N[C@H]2Cc3cc(O)cc(c3)-c3ccc4c(c3)c(c(-c3cc(F)cnc3COC)n4CC)CC(C)(C)COC(=O)[C@@H]3CCCN(N3)C2=O)C(C)C)C1 [Example A082] |
| – | < 5.00 | C=CC(=O)N1CC[C@H](C(=O)N(C)[C@H](C(=O)N[C@H]2Cc3cc(O)cc(c3)-c3ccc4c(c3)c(c(-c3ccccc3CO)n4CC)CC(C)(C)COC(=O)[C@@H]3CCCN(N3)C2=O)C(C)C)C1 [Examples A004] |
